Reference: paper PMC5278571, “Optimal doses of caspofungin during continuous venovenous hemodiafiltration in critically ill patients” (Critical Care, 2017)
Like-named read-outs stand apart in the source and are kept apart here.

Test: Pharmacokinetics of caspofungin during continuous venovenous hemodiafiltration (CVVHD)
Type: in vivo, human
Conditions: for Vd / t½ / AUC0-24 Arterial / AUC0-24 Difference venous to arterial (%) / AUC0-24 Venous / Cl / Cmax / Ctrough: steady state, CVVHD; for t½: elimination
Description: The aim of the present study was to describe the pharmacokinetics of caspofungin in 12 critically ill adult patients with suspected or proven invasive candidiasis who were receiving continuous venovenous hemodiafiltration (CVVHD).
CVVHD was performed using a polysulfone hemofilter (Fresenius, Germany). Caspofungin was administered at usual doses. Pre-filter and post-filter blood, ultradiafiltrate, and urine samples were collected at steady state on day 3 or later, before the dose infusion started, and 0.5, 1, 1.5, 2, 4, 6, 8, and 24 h after the infusion ended.

In the case of `CC[C@H](C)C[C@H](C)CCCCCCCCC(=O)N[C@H]1C[C@@H](O)[C@@H](NCCN)NC(=O)[C@@H]2[C@@H](O)CCN2C(=O)[C@H]([C@H](O)CCN)NC(=O)[C@H]([C@H](O)[C@@H](O)c2ccc(O)cc2)NC(=O)[C@@H]2C[C@@H](O)CN2C(=O)[C@H]([C@@H](C)O)NC1=O` [caspofungin], the Vd (human, in vivo, iv, Mean ± SD of 12 patients, SD, read-out: Vd) is reported as 16.4 ± 5.4 L, the “Mean concentration in the post-filter line compared with the pre-filter line” value (n = 12 patients, rules out adsorption to the filter) is reported as “slightly higher” and the t½ (patient 1) is reported as 27.4 h. The “AUC0-24 Arterial” value (patient 1) was 140.0 µg·h/mL, the “AUC0-24 Difference venous to arterial (%)” value (patient 1) was 29% and the “AUC0-24 Venous” value (patient 1) was 180.0 µg·h/mL. It also gave a Cl (patient 1) of 0.356 L/h, a Cmax (patient 1) of 12500 ng/mL and a Ctrough (patient 1) of 3470 ng/mL. For the same molecule, the Vd (patient 1) was 14.1 L, the t½ (patient 2) was 21.0 h and the “AUC0-24 Arterial” value (patient 2) was 88.3 µg·h/mL. The “AUC0-24 Difference venous to arterial (%)” value (patient 2) was 20%, the “AUC0-24 Venous” value (patient 2) was 106.0 µg·h/mL and the Cl (patient 2) was 0.567 L/h. For the same molecule, the Cmax (patient 2) was 7800 ng/mL, the Ctrough (patient 2) was 2100 ng/mL and the Vd (patient 2) was 17.1 L. For the same molecule, the t½ (patient 3) was 18.8 h, the “AUC0-24 Arterial” value (patient 3) was 124.0 µg·h/mL and the “AUC0-24 Difference venous to arterial (%)” value (patient 3) was 23%. For the same molecule, the “AUC0-24 Venous” value (patient 3) was 152.0 µg·h/mL, the Cl (patient 3) was 0.402 L/h and the Cmax (patient 3) was 8800 ng/mL. It also gave a Ctrough (patient 3) of 3100 ng/mL, a Vd (patient 3) of 10.9 L and a t½ (patient 4) of 24.3 h. The “AUC0-24 Arterial” value (patient 4) was 65.4 µg·h/mL, the “AUC0-24 Difference venous to arterial (%)” value (patient 4) was 18% and the “AUC0-24 Venous” value (patient 4) was 77.4 µg·h/mL. The Cl (patient 4) was 0.765 L/h, the Cmax (patient 4) was 6900 ng/mL and the Ctrough (patient 4) was 1300 ng/mL. The Vd (patient 4) was 26.8 L, the t½ (patient 5) was 16.5 h and the “AUC0-24 Arterial” value (patient 5) was 68.0 µg·h/mL. For the same molecule, the “AUC0-24 Difference venous to arterial (%)” value (patient 5) was 32%, the “AUC0-24 Venous” value (patient 5) was 90.0 µg·h/mL and the Cl (patient 5) was 0.735 L/h. For the same molecule, the Cmax (patient 5) was 4800 ng/mL, the Ctrough (patient 5) was 1500 ng/mL and the Vd (patient 5) was 17.5 L. For the same molecule, the t½ (patient 6) was 13.8 h, the “AUC0-24 Arterial” value (patient 6) was 102.0 µg·h/mL and the “AUC0-24 Difference venous to arterial (%)” value (patient 6) was 5%. For the same molecule, the “AUC0-24 Venous” value (patient 6) was 107.0 µg·h/mL, the Cl (patient 6) was 0.683 L/h and the Cmax (patient 6) was 10700 ng/mL. For the same molecule, the Ctrough (patient 6) was 2500 ng/mL, the Vd (patient 6) was 13.6 L and the t½ (patient 7) was 13.6 h. For the same molecule, the “AUC0-24 Arterial” value (patient 7) was 65.6 µg·h/mL, the “AUC0-24 Difference venous to arterial (%)” value (patient 7) was 20% and the “AUC0-24 Venous” value (patient 7) was 78.8 µg·h/mL. For the same molecule, the Cl (patient 7) was 0.762 L/h, the Cmax (patient 7) was 8300 ng/mL and the Ctrough (patient 7) was 1600 ng/mL. The Vd (patient 7) was 15.0 L, the t½ (patient 8) was 19.3 h and the “AUC0-24 Arterial” value (patient 8) was 100.0 µg·h/mL. For the same molecule, the “AUC0-24 Difference venous to arterial (%)” value (patient 8) was 13%, the “AUC0-24 Venous” value (patient 8) was 113.0 µg·h/mL and the Cl (patient 8) was 0.499 L/h. For the same molecule, the Cmax (patient 8) was 9500 ng/mL, the Ctrough (patient 8) was 2700 ng/mL and the Vd (patient 8) was 13.9 L. For the same molecule, the t½ (patient 9) was 14.3 h, the “AUC0-24 Arterial” value (patient 9) was 102.0 µg·h/mL and the “AUC0-24 Difference venous to arterial (%)” value (patient 9) was 25%. For the same molecule, the “AUC0-24 Venous” value (patient 9) was 127.0 µg·h/mL, the Cl (patient 9) was 0.685 L/h and the Cmax (patient 9) was 9200 ng/mL. It also gave a Ctrough (patient 9) of 2300 ng/mL, a Vd (patient 9) of 14.1 L and a t½ (patient 10) of 15.0 h. The “AUC0-24 Arterial” value (patient 10) was 121.0 µg·h/mL, the “AUC0-24 Difference venous to arterial (%)” value (patient 10) was 17% and the “AUC0-24 Venous” value (patient 10) was 142.0 µg·h/mL. The Cl (patient 10) was 0.578 L/h, the Cmax (patient 10) was 12600 ng/mL and the Ctrough (patient 10) was 2900 ng/mL. The Vd (patient 10) was 12.5 L, the t½ (patient 11) was 26.2 h and the “AUC0-24 Arterial” value (patient 11) was 190.0 µg·h/mL. For the same molecule, the “AUC0-24 Difference venous to arterial (%)” value (patient 11) was 18%, the “AUC0-24 Venous” value (patient 11) was 224.0 µg·h/mL and the Cl (patient 11) was 0.368 L/h. It also gave a Cmax (patient 11) of 11500 ng/mL, a Ctrough (patient 11) of 4000 ng/mL and a Vd (patient 11) of 13.9 L. For the same molecule, the t½ (patient 12) was 16.5 h, the “AUC0-24 Arterial” value (patient 12) was 60.1 µg·h/mL and the “AUC0-24 Difference venous to arterial (%)” value (patient 12) was 24%. For the same molecule, the “AUC0-24 Venous” value (patient 12) was 74.5 µg·h/mL, the Cl (patient 12) was 1.165 L/h and the Cmax (patient 12) was 8500 ng/mL. The Ctrough (patient 12) was 1900 ng/mL, the Vd (patient 12) was 27.7 L and the “Caspofungin in ultradiafiltrate samples” value (ultradiafiltrate, CVVHD with polysulfone hemofilter, HPLC) was “negligible”. For the same molecule, the “Caspofungin in urine samples” value (urine, patients on CVVHD, HPLC) was “negligible”.
